Tests used:
MOLM-13 = assay: Single agent viability assay (96 hours, alamarBlue); type: cell-based; settings: for EC50: Homo sapiens, 96 hours incubation
Description: (§1) Mycoplasma-free AML cell lines were maintained in RPMI 10% FBS medium at 37° C. in a humidified incubator with controlled 5% CO2 atmosphere. Cell freezing and thawing was performed following recommendation from ATCC. Genetic profiling of the cell lines used is available in Table 1.
(§2) Cells were seeded in 96-well plates at the optimal density to guarantee linear growth throughout the assay (8000 cells/well for MV(4; 11), 4000 cells/well for MOLM-13 and OCI-AML3, 2000 cells/well for TF1a) in 50 μL of medium. Each experimental condition was tested in technical triplicates, including medium-only and vehicle-treated controls for background correction and normalization, respectively. After seeding, 50 μL of medium containing 9 serial dilutions (1:3) of 2×-concentrated compound were added to the cells to obtain 100 μL of cells with 1×-concentrated compound at each dilution. Cells were then incubated for 96 hours at 37° C. in a controlled 5% CO2 atmosphere, prior to evaluation of cell viability using alamarBlue™ cell viability reagent (ThermoFisher Scientific, Waltham, MA/USA). AlamarBlue™ is a cell viability indicator that uses the natural reducing power of living cells to convert resazurin to the fluorescent molecule, resorufin. Briefly, alamarBlue™ stock solution was diluted 1:20 in the culture medium and after 3 hours incubation fluorescence was measured using a TECAN Infinity 2000 plate reader (Tecan Group Ltd., Männedorf, CH; 540-570 nm excitation wavelength, 580-610 nm emission wavelength). For each condition, the average fluorescence was calculated from the 3 technical replicates; background correction was calculated from the fluorescence of medium-only controls. Data were analyzed using the GraphPad PRISM® version 9.0.1 (GraphPad Software, Inc., La Jolla, CA/USA) to calculate the best-fitting curves and the EC50 values.

MV(4; 11) = assay: as above; type: cell-based; settings: for EC50: Homo sapiens, MV4-11, 96 hours incubation
Description: as §1, §2

OCI-AML3 = assay: as above; type: cell-based; settings: for EC50: Homo sapiens; for EC50 range in words / reduction of viability (compared to vehicle controls): single agent, 96 hours
Description: as §1, §2

TF-1a = assay: as above; type: cell-based; settings: for EC50 range in words / reduction of viability (compared to vehicle controls): 96 hours; for EC50: TF-1a
Description: as §1, §2

R/R AML = R/R AML patients treated with gilteritinib; cited from earlier work
[1] = OCI-AML-3, single agent, 96 hours incubation
[2] = single agent, 96 hours incubation

Row | EC50 range in words (MOLM-13; 96 hours) | EC50 (MOLM-13) | EC50 (OCI-AML3; [1]) | EC50 range in words (OCI-AML3) | EC50 (OCI-AML3; OCI-AML-3, tested following the method described above) | Compound | EC50 range in words (MV(4; 11); 96 hours) | EC50 (MV(4; 11)) | reduction of viability (compared to vehicle controls) (MOLM-13; 96 hours) | reduction of viability (compared to vehicle controls) (MV(4; 11); 96 hours) | reduction of viability (compared to vehicle controls) (OCI-AML3) | EC50 range in words (TF-1a; TF1a, single agent) | reduction of viability (compared to vehicle controls) (TF-1a; TF1a, single agent) | EC50 (TF-1a; [2]) | R/R AML patients showing complete remission (R/R AML) | relapse-free survival (R/R AML) | EC50 (TF-1a; TF1a, tested following the method described above)
1 | nanomolar range | 1.49 nM | – | – | – | COc1ccc(-c2c(-c3ccc(C#N)c(F)c3)nc(N3CCC(N)CC3)n(C)c2=O)cc1F [CC-90011, 4-[2-(4-aminopiperidin-1-yl)-5-(3-fluoro-4-methoxyphenyl)-1-methyl-6-oxo-1,6-dihydropyrimidin-4-yl]-2-fluorobenzonitrile] | nanomolar range | 2.3 nM | – | – | – | – | – | – | – | – | –
2 | nanomolar range | 6.08 nM | – | – | – | CN1CCN(C(=O)[C@H](CCCN[C@@H]2C[C@H]2c2ccc(F)cc2)NC(=O)c2ccc(-n3ccnn3)cc2)CC1 [bomedemstat, N-[(2S)-5-{[(1R,2S)-2-(4-fluorophenyl)cyclopropyl]amino}-1-(4-methylpiperazin-1-yl)-1-oxopentan-2-yl]-4-(1H-1,2,3-triazol-1-yl) benzamide] | nanomolar range | 3.73 nM | – | – | – | – | – | – | – | – | –
3 | nanomolar range | 2.91 nM | 1160 nM | micromolar range | – | CCc1nc(C(N)=O)c(Nc2ccc(N3CCC(N4CCN(C)CC4)CC3)c(OC)c2)nc1NC1CCOCC1 [gilteritinib, 6-ethyl-3-[[3-methoxy-4-[4-(4-methylpiperazinyl)piperidin-1-yl]phenyl]amino]-5-[(tetrahydro-2H-pyran-4-yl)amino]pyrazine-2-carboxamide] | nanomolar range | 0.77 nM | ~100% | ~100% | > 70% | micromolar range | > 70% | 1020 nM | 21% | around 4 months | –
4 | sub-nanomolar range | 0.39 nM | 0.38 nM | sub-nanomolar range | – | N[C@H]1CC[C@H](N[C@@H]2C[C@H]2c2ccccc2)CC1 [iadademstat, (trans)-N1-((1R,2S)-2-phenylcyclopropyl)cyclohexane-1,4-diamine] | sub-nanomolar range | 0.43 nM | – | – | greater than 20% | sub-nanomolar range | greater than 20% | 0.35 nM | – | – | –
5 | – | – | – | – | > 10000 nM | CC1(C)CCC(CN2CCN(c3ccc(C(=O)NS(=O)(=O)c4ccc(NCC5CCOCC5)c([N+](=O)[O-])c4)c(Oc4cnc5[nH]ccc5c4)c3)CC2)=C(c2ccc(Cl)cc2)C1 [venetoclax] | – | – | – | – | – | – | – | – | – | – | > 10000 nM

— US20250073232A1, “COMBINATIONS OF LSD1 INHIBITORS FOR TREATING MYELOID CANCERS” (ORYZON GENOMICS, S.A., priority 2021, published 2025)
